Laboratory results from patent publication US20240277743A1, “RESTORING PHYSIOLOGY WITH SMALL MOLECULE MIMICS OF MISSING PROTEINS” (The Board of Trustees Of The University Of Illinois, priority 2014, published 2024).

Columns and labels:
Assay type in all cases: cell-based, Saccharomyces cerevisiae
[1] = test system: wild type S. cerevisiae; test: Growth of wild type cells treated with AmB
Source text: (§1) Broth microdilution minimum inhibitory concentration (MIC) assay. The protocol for the MIC broth microdilution assay was adapted from the Clinical and Laboratory Standards Institute document M27-A2 and performed as previously described. Gray, K. C. et. al. Proc. Natl. Acad. Sci. U.S.A. 109, 2234-2239 (2012); Palacios, D. S. et al. J. Am. Chem. Soc. 129, 13804-13805 (2007).
(§2) Functional complementation of a protein with a small molecule assay. The protocol for the rescue broth microdilution assay was conducted as described in the MIC assay above with the following additions: trk1atrk2Δ yeast were grown in high potassium (100 mM) YPAD liquid media overnight and transferred to normal potassium YPAD liquid media containing vehicle or the indicated concentration of AmB.

[2] = test system: trk1Δtrk2Δ cells; test: Disc diffusion assay of growth rescue; details: paper disc impregnated with AmB; FIG. 2C
Experimental: Disc diffusion assay. The assay was performed as previously described. National Committee for Clinical Laboratory Standards in Performance Standards for Antimicrobial Disk Susceptibility Tests; M2-A8 Approved Standard (NCCLS, Wayne) (2003).

[3] = test system: small molecule-rescued trk1Δtrk2Δ cells versus wild type; test: Probing sensitivities to known chemical inhibitors assay; details: FIG. 3E legend
Experimental: Probing sensitivities to known chemical inhibitors assay. Overnight cultures were grown as described in the MIC assay. Prior to harvesting cells, small molecules AmB, nystatin A1 (Riedel-de-Haen), candicidin (TOKU-E), or mepartricin (Santa Cruz Biotechnology) and chemical inhibitors nocodazole (Sigma-Aldrich), ebselen (Cayman Chemical), or bafilomycin BI (Santa Cruz Biotechnology were prepared as stock solutions in DMSO. Saturated cell cultures were centrifuged for 5 minutes at 1000×g. The supernatant was poured off, and cells were resuspended in sterile MilliQ water. Cells were centrifuged again, and supernatant was poured off. The wash step was repeated. The supernatant was poured off, and cells were resuspended in normal potassium YPAD. Cells were diluted with normal potassium YPAD to an OD600 of 0.01. Next, an appropriate volume of AmB, nystatin A1, candicidin, or mepartricin was added to give a final rescuing concentration of 125 nM, 1000 nM, 8 nM, and 8 nM, respectively. A control was prepared by adding the corresponding volume of DMSO to trk1Δtrk2Δ cells. 195 μL of WT+small molecule, 195 μL of trk1Δtrk2Δ+small molecule, and 195 μL of trk1Δtrk2Δ+DMSO were added to a 96 well plate. Next, 5 μL of DMSO or chemical inhibitor was added to each well, with each concentration tested in triplicate for both WT and trk1Δtrk2Δ . The plate was covered and incubated at 30° C. for 24 hours. A BioTek Synergy H1 Hybrid Reader was used to measure the OD600. Utilizing GraphPad PRISM, data were fitted by nonlinear regression, inhibition dose response, variable slope (four parameters) to yield EC50 values with SEM. For statistical analysis, EC50 values from the two treatment groups were compared by unpaired t-test.

[4] = test system: trk1Δtrk2Δ cells; test: Cell viability assay (propidium iodide staining); details: 125 nM AmB, 24 hours, FIG. 2H
Experimental: Cell viability assay. WT and trk1 Δtrk2Δ cells were inoculated in high potassium (100 mM KCl) YPAD. Starter cultures were grown at 30° ° C. for 14-15 hours. Cells were then cultured in high potassium YPAD at 30° ° C. for 2-2.5 hours. 100 μL of a 0.25 mg/mL propidium iodide (PI. Sigma-Aldrich P4864) solution was prepared. After 2-2.5 hours, cells were centrifuged at 800 g for 5 minutes, at 23° C. The supernatant was decanted, cells were resuspended in 40 mL of high potassium YPAD, vortexed, and centrifuged. The wash step was repeated. After pouring off the supernatant, cells were resuspended in 15 mL of high potassium YPAD, vortexed, and diluted to an OD600 of 0.5. To set one (WT, WT+PI, trk1Δtrk2Δ, and trk1Δtrk2Δ+PI) and set two (WT+PI+AmB, trk1 Δtrk2Δ+PI+AmB), 26.4 μL of DMSO were added to 1 mL aliquots of WT and trk1Δtrk2Δ, and incubated at 30° C. for 30 minutes. A 1% w/v low gelling temperature agarose (Sigma-Aldrich A9414) was prepared in normal potassium (10 mM) YPAD. When set one incubation completed, cells were pulse centrifuged, supernatant was removed, and resuspended in normal potassium YPAD to wash. […] The total number of PI stained cells was subtracted from the total cells recorded, and divided by total cells to give % viability. At least 200 cells were recorded per treatment group and 4 independent sets of data were obtained.

[5] = test system: trk1Δtrk2Δ yeast; test: Functional complementation of a protein with a small molecule assay (rescue broth microdilution)
Source text: as §1, §2

[6] = test system: trk1Δtrk2Δ yeast; test: Sustainable restoration of cell growth assay (max OD600, doubling time)
Experimental: Sustainable restoration of cell growth assay. Wild type and trk1 Δtrk2Δ yeast were treated as described in the functional complementation experiment described above, with the trk1 Δtrk2Δ yeast treated with 125 nM AmB. The OD600 was measured every hour for 24 hours, including a reading at time zero. Wild type yeast were then streaked onto normal potassium YPAD agar plates and AmB-rescued TrklAtrk2Δ yeast were streaked onto AmB-containing (0.125 μM) normal potassium YPAD agar plates. These agar plates were then incubated at 30° ° C. for about 48 hours. The same procedure was then repeated for over 42 days, measuring the max OD600 and doubling time every three days. Doubling time was determined using the following equation: Td=(t2−t1)×[log(2)/log (q2/q1)], where t2 and t1 represent the time at the two points and q2 and q1 represent the OD600 values in the exponential phase of growth (OD600 from 0.2 to 0.6).

C[C@@H]1[C@H](O)[C@@H](C)/C=C/C=C/C=C/C=C/C=C/C=C/C=C/[C@H](O[C@@H]2O[C@H](C)[C@@H](O)[C@H](N)[C@@H]2O)C[C@@H]2O[C@](O)(C[C@@H](O)C[C@@H](O)[C@H](O)CC[C@@H](O)C[C@@H](O)CC(=O)O[C@H]1C)C[C@H](O)[C@H]2C(=O)O [AmB, amphotericin B]
growth stimulatory effects on wild type cells [1]: no growth stimulatory effects
growth rescue in disc diffusion assay [2]: dependence of the growth rescue on the concentration of AmB
optimum rescue concentration for trk1Δtrk2Δ cells [3]: 0.5 µM
cell viability of AmB-rescued trk1Δtrk2Δ cells versus wild type [4]: Equivalent levels of cell viability
trk1Δtrk2Δ yeast cell growth in broth dilution assay ([5]; at or above the minimum inhibitory concentration): no growth
trk1Δtrk2Δ yeast cell growth in broth dilution assay ([5]; intermediate concentrations, normal potassium YPAD, FIG. 2D): dose-dependent increase of growth
doubling time of AmB-rescued trk1Δtrk2Δ cells relative to wild type ([6]; 125 nM AmB): 1.7 times longer
sustainability of cell growth of AmB-rescued trk1Δtrk2Δ cells ([6]; 125 nM AmB, passed every 3 days for over a month, FIG. 2I): sustained, vigorous cell growth
maximum cell density (max OD600) of treated trk1Δtrk2Δ cells ([6]; liquid culture after 24 h, versus wild type, FIG. 2G): matched that of the wild type
